According to patent publication US20220347175A1, “PYRIDAZINONE DERIVATIVE” (Sumitomo Dainippon Pharma Co., Ltd., priority 2018, published 2022):

Biological target: T1, human Nav1.1 (Homo sapiens, UniProt P35498)
T1 construct: host or cells: HEK293
Assay: Amplification of Nav1.1-derived voltage-dependent sodium current (Nav1.1 current), cell line stably expressing human Nav1.1, automated patch clamp
Format: cell-based
Settings: 10 μmol/L compound (Test Result 5)
Procedure: Test 1: Evaluation of the Amplification of Nav1.1-Derived Voltage-Dependent Sodium Current (Nav1.1 Current) by Using a Cell Line Stably Expressing Human Nav1.1
(1) Preparation of Test Compounds
Test compounds were prepared by dissolving in DMSO at 200 times of the concentration at evaluation, and diluting the obtained solution to twice the concentration of evaluation with an extracellular fluid (135 mmol/L NaCl, 4 mmol/L KCl, 1 mmol/L MgCl2, 5 mmol/L CaCl2, 5 mmol/L Glucose, 10 mmol/L HEPES).
(2) Induction and Measurement of Nav1.1 Current
A HEK293 cell line stably expressing human Nav1.1 (cat #CYL3009, Millipore, USA, Human Embryonic Kidney 293) was purchased, and used in the present test. Nav1.1 current was induced by stimulating Ramp wave voltage. Detection of current which accompanied with the stimulation of voltage was carried out by a patch-clamp voltage-clamp method using HTS automated patch clamp system (SynchroPatch 768PE, Nanion Technologies GmbH, Germany). Only cells with more than 500 pA of voltage-dependent sodium channel current were used for the evaluation of the activity of compounds on Nav1.1 current because there was the possibility that currents derived from endogenous voltage-dependent sodium channels accounted for large proportion in cells with less than 500 pA of voltage-dependent sodium channel current which was induced by stimulating Ramp wave voltage.
(3) Pharmacologic Effect on Nav1.1 Current
The effect of test compounds on the amplification of Nav1.1-derived voltage-dependent sodium current was evaluated by using a cell line stably expressing human Nav1.1 and HTS automated patch clamp system. In other words, test compounds were added in an extracellular fluid containing 1% DMSO, and evaluated as a change of the peak value of Nav1.1 current and the area under the curve (AUC).
(4) Method for Pharmacological Evaluation
The Nav1.1 current amplification rates of test compounds were calculated by the following formula:
Nav1.1 current amplification rate (%)=100×[the peak value of Nav1.1 current or the area under the curve after the addition of test compounds]/[the peak value of Nav1.1 current or the area under the curve before the addition of test compounds]−100

| Structure (SMILES) | Nav1.1 current amplification rate (%) |
| --- | --- |
| N#Cc1ccc(NC(=O)Cn2nc(N3CCCC3)ccc2=O)cc1 [Example 4] | 3 |
| N#Cc1ccc(NC(=O)Cn2nc(N3CCCC(O)C3)ccc2=O)cc1 (stereo not drawn) [Example 7] | 3 |
| N#Cc1ccc(NC(=O)Cn2nc(N3CCC4(CCCO4)CC3)ccc2=O)cc1 [Example 29] | 20 |
| N#Cc1ccc(NC(=O)Cn2nc(N3CCC4(CC4)C3)ccc2=O)cc1 [Example 25] | 163 |
| CC1CC=C(c2ccc(=O)n(CC(=O)N3CCc4c3ccnc4C3=CCNC3)n2)CC1 (racemic) [Example 281] | 40 |
| N#Cc1ccc(NC(=O)Cn2nc(C3CCCCC3)ccc2=O)cc1 [Example 40] | 20 |
| CC1CCC(c2ccc(=O)n(CC(=O)Nc3ccc(C#N)cc3)n2)CC1 (stereo not drawn) [Example 44] | 59 |
| N#Cc1ccc(NC(=O)Cn2nc(N3CCCC(C(N)=O)C3)ccc2=O)cc1 (stereo not drawn) [Example 8] | 4 |
| CC1C=C(c2ccc(=O)n(CC(=O)Nc3ccc(C#N)cc3)n2)CC(C)O1 (stereo not drawn) [Example 49] | 2 |
| N#Cc1ccc(NC(=O)Cn2nc(N3CCC4(CC3)CC(F)(F)C4)ccc2=O)cc1 [Example 32] | 60 |
| CC1CC(C)CN(c2ccc(=O)n(CC(=O)Nc3ccc(C#N)cc3)n2)C1 (stereo not drawn) [Example 14] | 9 |
| N#Cc1ccc(NC(=O)Cn2nc(N3CCCC4(CCC4)C3)ccc2=O)cc1 [Example 33] | 220 |
| N#Cc1ccc(NC(=O)Cn2nc(N3CCC(F)(F)CC3)ccc2=O)cc1 [Example 5] | 6 |
| CC1CCCN(c2ccc(=O)n(CC(=O)Nc3ccc(C#N)cc3)n2)C1 (stereo not drawn) [Example 13] | 76 |

Continued, values first:

| Nav1.1 current amplification rate (%) | Structure (SMILES) |
| --- | --- |
| 147 | CC1CC=C(c2ccc(=O)n(CC(=O)Nc3ccnc(-c4cnn(C)c4)c3)n2)CC1 (racemic) [Example 379] |
| 52 | CC1CC=C(c2ccc(=O)n(CC(=O)NC3CN(c4ccccc4)C3)n2)CC1 (racemic) [Example 372] |
| 18 | CC1CC=C(c2ccc(=O)n(CC(=O)NC3CCN(c4ccccc4)CC3)n2)CC1 (racemic) [Example 368] |
| 53 | CC1CC=C(c2ccc(=O)n(CC(=O)N3CCN(Cc4ccncc4)CC3)n2)CC1 (racemic) [Example 392] |
| 39 | CC1CC=C(c2ccc(=O)n(CC(=O)N3CC=C(c4ccccn4)CC3)n2)CC1 (stereo not drawn) [Example 420] |
| 19 | CC1CC=C(c2ccc(=O)n(CC(=O)N3CCN(Cc4cccnc4)CC3)n2)CC1 (racemic) [Example 393] |
| 37 | CC1CC=C(c2ccc(=O)n(CC(=O)N3CC=C(c4ccccc4)C3)n2)CC1 (racemic) [Example 388] |

Same assay, conditions: 10 μmol/L compound (Test Result 5); read-out: Nav1.1 current amplification rate (%)

| activation at 10 µM [%] | Structure (SMILES) |
| --- | --- |
| 22 | CC1CCN(c2ccc(=O)n(CC(=O)N3CCN(c4ccccn4)CC3)n2)CC1 [Example 180] |

Same assay, conditions: Concentration 1 μM (Test Result 7); read-out: Nav1.1 current amplification rate (%)

| activation at 1 µM [%] | Structure (SMILES) |
| --- | --- |
| 17 | O=C(Cn1nc(N2CCC3(CC3)C(F)(F)C2)ccc1=O)Nc1ccn2ncnc2c1 [Example 557] |
| 31 | CC1CC=C(c2ccc(=O)n(CC(=O)Nc3ccc4c(O)ncnc4c3)n2)CC1 (stereo not drawn) [Example 550] |
| 99 | CN(c1ccc(=O)n(CC(=O)N2CCc3c(N4CCOCC4)cccc32)n1)C1CC2(CC2)C1 [Example 570] |
| 154 | CC1CC=C(c2ccc(=O)n(CC(=O)Nc3ccc4cccnc4c3)n2)CC1 (stereo not drawn) [Example 543] |
| 24 | CC1CC=C(c2ccc(=O)n(CC(=O)Nc3ccn4ncnc4c3F)n2)CC1 (stereo not drawn) [Example 552] |
| 17 | CN(c1ccc(=O)n(CC(=O)Nc2ccc(C#N)nc2)n1)C1CCCC1 [Example 561] |
| 223 | CC1CC=C(c2ccc(=O)n(CC(=O)Nc3ccc4cnccc4c3)n2)CC1 (stereo not drawn) [Example 545] |
| 42 | CN(CC1(C)CC1)c1ccc(=O)n(CC(=O)N2CCc3c(N4CCOCC4)cccc32)n1 [Example 568] |

Same assay, conditions: Concentration 10 μM (Test Result 7); read-out: Nav1.1 current amplification rate (%)

| activation at 10 µM [%] | Structure (SMILES) |
| --- | --- |
| 73 | CN(c1ccc(=O)n(CC(=O)Nc2cnc3cccnc3c2)n1)C1CCCC1 [Example 564] |
| 11 | CN(c1ccc(=O)n(CC(=O)Nc2ccn3ncnc3c2)n1)C1CC1 [Example 558] |

Same assay, conditions: compound 50 μmol/L; HEK293 stably expressing human Nav1.1

| Structure (SMILES) | Nav1.1 current amplification rate (%) |
| --- | --- |
| CC1CC=C(c2ccc(=O)n(CC(=O)N3CCc4c(-c5cc[nH]n5)ccnc43)n2)CC1 (racemic) [Example 291] | 212 |
| Cc1ccc(-c2ccc(=O)n(CC(=O)N3CCc4ccccc43)n2)cc1 [Example 157] | 29 |
| CC1CC=C(c2ccc(=O)n(CC(=O)N3CCc4nc(-c5cn[nH]c5)ccc43)n2)CC1 (racemic) [Example 289] | 51 |

Continued, values first:

| Nav1.1 current amplification rate (%) | Structure (SMILES) |
| --- | --- |
| 29 | O=C(Cn1nc(C2=CCCC2)ccc1=O)Nc1ccn2ccnc2c1 [Example 457] |
| 98 | Cc1cc2ncnn2cc1NC(=O)Cn1nc(C2=CCC(C)CC2)ccc1=O (racemic) [Example 351] |
| 42 | CC1CC=C(c2ccc(=O)n(CC(=O)N3CC=C(c4ccccn4)C3)n2)CC1 (racemic) [Example 385] |
| 37 | COC1CN(Cc2cncc(NC(=O)Cn3nc(C4=CCC(C)CC4)ccc3=O)c2)C1 (racemic) [Example 366] |
| 80 | CC1CC=C(c2ccc(=O)n(CC(=O)N3CCN(C4CCCOC4)CC3)n2)CC1 (stereo not drawn) [Example 408] |

Same assay, conditions: compound 50 μmol/L; HEK293 stably expressing human Nav1.1; read-out: Nav1.1 current amplification rate (%)

| Structure (SMILES) | activation at 50 µM [%] |
| --- | --- |
| CC1CC2CCC(C1)N2c1ccc(=O)n(CC(=O)N2CCc3c(N4CCOCC4)cccc32)n1 (stereo not drawn) [Example 238] | 128 |
| Cc1ccc(Oc2ccc(=O)n(CC(=O)Nc3ccn4ncnc4c3)n2)cc1 [Example 530] | 9 |

Same assay, conditions: concentration of each compound 1 μmol/L (Test Result 6)

| Structure (SMILES) | Nav1.1 current amplification rate (%) |
| --- | --- |
| CC1CC=C(c2ccc(=O)n(CC(=O)N3CCc4c3ccnc4C3=CCOC3)n2)CC1 (racemic) [Example 284] | 91 |
| COC1CN(Cc2cccc3c2CCN3C(=O)Cn2nc(C3=CCC(C)CC3)ccc2=O)C1 (racemic) [Example 274] | 60 |
| CC1CC=C(c2ccc(=O)n(CC(=O)N3CCc4c3ccc(F)c4-c3ccnnc3)n2)CC1 (racemic) [Example 295] | 95 |
| CC1CC=C(c2ccc(=O)n(CC(=O)N3CCc4c3ccnc4C3=CCN(C)C3)n2)CC1 (racemic) [Example 283] | 15 |
| COCCN(C)Cc1cccc2c1CCN2C(=O)Cn1nc(C2=CCC(C)CC2)ccc1=O (racemic) [Example 275] | 46 |

Continued, values first:

| Nav1.1 current amplification rate (%) | Structure (SMILES) |
| --- | --- |
| 51 | CC1CC=C(c2ccc(=O)n(CC(=O)N3CCc4cc(-c5cccnc5)ccc43)n2)CC1 (racemic) [Example 298] |
| 19 | CC1CC=C(c2ccc(=O)n(CC(=O)N3CCc4c(CNC5CCC5)cccc43)n2)CC1 (racemic) [Example 315] |
| 13 | CC1CC=C(c2ccc(=O)n(CC(=O)Nc3cncc(C4=COCCC4)c3)n2)CC1 (racemic) [Example 382] |
| 87 | CC1CC=C(c2ccc(=O)n(CC(=O)N3CCc4c3ccnc4C3=CCOCC3)n2)CC1 (racemic) [Example 296] |
| 9 | COCCNCc1cccc2c1CCN2C(=O)Cn1nc(C2=CCC(C)CC2)ccc1=O (racemic) [Example 314] |
| 68 | CC1CC=C(c2ccc(=O)n(CC(=O)Nc3ccc4c(cnn4C)c3)n2)CC1 (racemic) [Example 336] |
| 134 | CC1CC=C(c2ccc(=O)n(CC(=O)Nc3ccc(-n4ccnc4)nc3)n2)CC1 (racemic) [Example 377] |
| 37 | CC1CC=C(c2ccc(=O)n(CC(=O)Nc3cncc(-c4cnn(C)c4)c3)n2)CC1 (racemic) [Example 378] |
| 80 | O=C(Cn1nc(-c2cc(Cl)cs2)ccc1=O)Nc1ccn2ccnc2c1 [Example 467] |

Same assay, conditions: concentration of each compound 1 μmol/L (Test Result 6); read-out: Nav1.1 current amplification rate (%)

| activation at 1 µM [%] | Structure (SMILES) |
| --- | --- |
| 14 | COc1cc(=O)n(CC(=O)Nc2ccc3oc(N(C)C)nc3c2)nc1C1=CCC(C)(C)CC1 [Example 500] |
| 28 | O=C(Cn1nc(C2=CCCCC2)ccc1=O)Nc1ccn2ncnc2c1 [Example 495] |
| 43 | O=C(Cn1nc(-c2cc(Cl)cs2)ccc1=O)Nc1ccn2ncnc2c1 [Example 497] |
| 34 | CC1CCN(c2ccc(=O)n(CC(=O)Nc3ccn4ncnc4c3)n2)CC1 [Example 229] |
